Experimental data published in patent US5350743A, “Bisphosphonic acid derivatives, as bone resorption inhibitors” (Kaken Pharmaceutical Co., Ltd., priority 1991, dated 1994).

Legend:
[1] = system: bone resorption activities by PTH; assay type: in vivo, rat (Wister male); settings: sc, 10 mg/kg; for Serum calcium value, 1 day value (b) / Serum increased calcium value [(b)-(a)]: 24 h
Description: Now, the test method with respect to the antihypercalcemic activities of the compounds of the present invention by using rats having the thyroid gland and the pala thyroid gland removed, and the results will be described.
Wister male rats of 7 weeks old (150-170 g) were anesthetized with nenbutal, and the thyroid gland and the pala thyroid gland were surgically removed by the method disclosed by Russel R. G. et al, Calcif. Tissue, Res., 183-196 (1970) and by Muehlbauer R. C. et al, Mineral Electrolyte Metab., 5 296-300 (1981). After the operation, the rats were fed on normal food for three days, and on the fourth day, the blood was sampled, and the serum calcium value was measured by an atomic absorption method, whereby rats having the serum calcium value lowered to a level of from 5 to 7 mg/de were selected.
These rats were divided into groups so that each group consisted of five rats. A compound of the present invention was dissolved in a 0.5% CMC aqueous solution or physiological saline and adjusted for administration at a dose of 10 mg/kg. Such a solution was subcutaneously administered at a dose of 2 ml/kg once a day for three days. To a control group, a 0.5% CMC aqueous solution or physiological saline was administered. Next day, 0.2 ml of the blood was sampled, and the serum calcium value was measured in the same manner as described above (this value was designated as 0 day value (a)).
At the same time, an osmotic pump (2001 Model, manufactured by Alza Co.) having parathyroid hormone (PTH) (50 μg/0.2 ml physiological saline) sealed in, was subcutaneously embedded on the back of each rat, and 24 hours later, the blood was sampled from the aorta abdominalis, whereupon the serum calcium value was measured (this value was designated as one day value (b)).
From the obtained results, the serum increased calcium value was calculated by the following formula: [formula]

[2] = toxicity, LD50, subcutaneous injection to mice; settings: mouse, in vivo, sc, ddy mice male five weeks old (22-27 g)
Method: LD50 of the compounds of Examples 2, 14, 16, 18, 33, 34 and 58 was at least 100 mg/kg when subcutaneously injected to ddy mice (male) of five weeks old (22-27 g).

Compound	Serum calcium value, 0 day value (a) [1] [µg/mL]	Serum calcium value, 1 day value (b) [1] [µg/mL]	Serum increased calcium value [(b)-(a)] [1] [µg/mL]	LD50 [2] [mg/kg]
NCCC(O)(P(=O)(O)O)P(=O)(O)O [APD, reference compound]	60.2 ± 8.32	83.6 ± 3.13	23.4 ± 6.50	–
O=P(O)(O)C(N1CCC2(CCCCC2)CC1)P(=O)(O)O [Example 2, 3-azaspiro[5.5]undecan-3-yl-methylene bisphosphonic acid]	47.2 ± 2.22	109.0 ± 8.47	61.8 ± 7.38	≥ 100
O=P(O)(O)C(N1CCC2(CC1)CC2(F)F)P(=O)(O)O [Example 4, 1,1-difluoro-6-azaspiro[2.5]octan-6-yl-methylene bisphosphonic acid]	51.4 ± 7.23	128.7 ± 3.31	77.3 ± 6.37	–
O=P(O)(O)C(N1CCC2(CCCC2)CC1)P(=O)(O)O [Example 6, 8-azaspiro[4.5]decan-8-yl-methylene bisphosphonic acid]	40.3 ± 3.61	90.6 ± 5.30	50.3 ± 6.25	–
O=P(O)(O)C(N1CCCC12CCCCC2)P(=O)(O)O [Example 8, 1-azaspiro[4.5]decan-1-yl-methylene bisphosphonic acid]	47.1 ± 4.17	109.8 ± 2.07	62.7 ± 4.27	–
O=P(O)(O)C(N1CCCCC12CCCCC2)P(=O)(O)O [Example 10, 1-azaspiro[5.5]undecan-1-yl-methylene bisphosphonic acid]	45.5 ± 5.54	108.8 ± 6.80	63.3 ± 1.91	–
O=P(O)(O)C(N1CCCC2(CCCCC2)C1)P(=O)(O)O [Example 12, 2-azaspiro[5.5]undecan-2-yl-methylene bisphosphonic acid]	53.9 ± 7.82	138.9 ± 4.29	85.0 ± 6.27	–
C=C1CCN(C(P(=O)(O)O)P(=O)(O)O)CC1 [Example 14, 4-methylidenepiperidinomethylene bisphosphonic acid]	60.99 ± 2.67	68.34 ± 2.94	7.35 ± 2.65	≥ 100
CCCCCC=C1CCN(C(P(=O)(O)O)P(=O)(O)O)CC1 [Example 16, 4-hexylidenepiperidinomethylene bisphosphonic acid]	52.12 ± 1.86	53.30 ± 4.89	1.18 ± 3.70	≥ 100
CC=C1CCN(C(P(=O)(O)O)P(=O)(O)O)CC1 [Example 18, 4-ethylidenepiperidinomethylene bisphosphonic acid]	61.34 ± 7.49	66.05 ± 6.68	4.72 ± 4.05	≥ 100
CCC=C1CCN(C(P(=O)(O)O)P(=O)(O)O)CC1 [Example 20]	63.02 ± 3.75	71.73 ± 6.32	8.71 ± 2.72	–
CCCC=C1CCN(C(P(=O)(OCC)OCC)P(=O)(OCC)OCC)CC1 [Example 21, 4-Butylidenepiperidinomethylene bisphosphonic acid ethyl ester]	60.87 ± 5.61	65.92 ± 7.91	5.05 ± 3.19	–
CCOP(=O)(OCC)C(N1CCC(Cc2ccccc2)CC1)P(=O)(OCC)OCC [Example 27, 4-Benzylpiperidinomethylene bisphosphonic acid ethyl ester]	66.2 ± 3.13	79.5 ± 2.77	13.3 ± 1.62	–
CCOP(=O)(OCC)C(N1CCC(C(N)=O)(N2CCCCC2)CC1)P(=O)(OCC)OCC [Example 29, 4-Carbamoyl-4-(1-piperidyl)piperidinomethylene bisphosphonic acid ethyl ester]	66.7 ± 5.91	74.8 ± 1.82	8.1 ± 4.35	–
CCOP(=O)(OCC)C(N1CCC(F)(F)CC1)P(=O)(OCC)OCC [Example 31, 4,4-Difluoropiperidinomethylene bisphosphonic acid ethyl ester]	65.3 ± 3.15	73.1 ± 3.96	7.8 ± 3.57	–
CC1(Cl)CCN(C(P(=O)(O)O)P(=O)(O)O)CC1 [Example 33, 4-Chloro-4-methylpiperidinomethylene bisphosphonic acid]	52.1 ± 1.73	53.3 ± 4.91	1.2 ± 3.77	≥ 100
CC1(O)CCN(C(P(=O)(O)O)P(=O)(O)O)CC1 [Example 34, 4-Hydroxy-4-methylpiperidinomethylene bisphosphonic acid]	61.0 ± 2.82	68.3 ± 2.87	7.4 ± 2.69	≥ 100
CCCCCCC1(O)CCN(C(P(=O)(O)O)P(=O)(O)O)CC1 [Example 35, 4-Hexyl-4-hydroxypiperidinomethylene bisphosphonic acid]	70.8 ± 3.85	84.5 ± 6.73	13.7 ± 4.13	–
CCOP(=O)(OCC)C(N1CCC(C)(F)CC1)P(=O)(OCC)OCC [Example 37, 4-Fluoro-4-methylpiperidinomethylene bisphosphonic acid ethyl ester]	53.8 ± 2.10	55.7 ± 3.63	1.9 ± 3.10	–
CC(C)(C)C1(O)CCN(C(P(=O)(O)O)P(=O)(O)O)CC1 [Example 54, 4-t-Butyl-4-hydroxypiperidinomethylene bisphosphonic acid]	67.3 ± 2.83	77.0 ± 3.74	9.7 ± 5.32	–
CC1(C)CCCN(C(P(=O)(O)O)P(=O)(O)O)C1 [Example 58, 3,3-dimethylpiperidinomethylene bisphosphonic acid]	50.8 ± 2.35	130.4 ± 7.57	79.6 ± 7.07	≥ 100
CC1(C)CCN(C(P(=O)(O)O)P(=O)(O)O)CC1 [Example 60, 4,4-dimethylpiperidinomethylene bisphosphonic acid]	46.5 ± 8.69	110.4 ± 1.59	63.9 ± 2.15	–
